In paper PMC7911889 (Viruses, 2021):

Molecular target: SARS-CoV-2 3CL^pro (Severe acute respiratory syndrome coronavirus 2, UniProt P0DTD1)
Format: cell-based

| Compound | Effect on luciferase reporter activity / 3CL^pro inhibition (in words) | EC50 (read-out: EC50, SARS-CoV-2 3CLpro luciferase complementation assay) [µM] |
| --- | --- | --- |
| CC(C)(C)NC(=O)N[C@H](C(=O)N1C[C@H]2[C@@H]([C@H]1C(=O)NC(CC1CCC1)C(=O)C(N)=O)C2(C)C)C(C)(C)C (stereo partly drawn) [Boceprevir] | clearly inhibited SARS-CoV-2 3CL^pro |  |
| CC(NC(=O)[C@H](Cc1ccccc1)NC(=O)OCc1ccccc1)C(=O)CF (stereo partly drawn) [Z-FA-FMK] | clearly inhibited SARS-CoV-2 3CL^pro | 26.3 |
